{"source": "paper PMC5218480", "about": "(PLoS ONE, 2017)", "tested_on": "MV-4-11 cells", "assay": "Gene expression microarray analysis (Affymetrix PrimeView) and GSEA", "assay_type": "cell-based, human", "design": "RFU PODN (11730768_x_at) / Fold change /veh PODN (11730768_x_at) / RFU LINC00158 (11744669_a_at) / Fold change /veh LINC00158 (11744669_a_at) / RFU DUSP10 (11751237_a_at) / Fold change /veh DUSP10 (11751237_a_at) / RFU ID3 (11757404_x_at) / Fold change /veh ID3 (11757404_x_at) / RFU PLEKHG5 (11737974_s_at) / Fold change /veh PLEKHG5 (11737974_s_at) / RFU LRRC4B (11730491_at) / Fold change /veh LRRC4B (11730491_at) / RFU GIMAP4 (11747438_a_at) / Fold change /veh GIMAP4 (11747438_a_at) / RFU KRT8 (11758183_x_at) / Fold change /veh KRT8 (11758183_x_at) / RFU CNN1 (11734310_a_at) / Fold change /veh CNN1 (11734310_a_at) / RFU VPS37D (11726825_at) / Fold change /veh VPS37D (11726825_at) / RFU C10orf10 (11716522_x_at) / Fold change /veh C10orf10 (11716522_x_at) / RFU KIR2DL2 /// KIR2DL4 /// KIR2DL5A /// KIR2DL5B /// KIR2DS1 /// KIR2DS2 /// KIR2DS3 /// KIR2DS4 /// KIR3DL3 /// KIR3DL3 /// KIR3DS1 (11738374_at) / Fold change /veh KIR2DL2 /// KIR2DL4 /// KIR2DL5A /// KIR2DL5B /// KIR2DS1 /// KIR2DS2 /// KIR2DS3 /// KIR2DS4 /// KIR3DL3 /// KIR3DL3 /// KIR3DS1 (11738374_at) / RFU C1QL1 (11718748_at) / Fold change /veh C1QL1 (11718748_at) / RFU TMPRSS4 (11747572_a_at) / Fold change /veh TMPRSS4 (11747572_a_at) / RFU HAMP (11756126_x_at) / Fold change /veh HAMP (11756126_x_at) / RFU RNFT2 (11725882_a_at) / Fold change /veh RNFT2 (11725882_a_at) / RFU NR4A2 (11747474_a_at) / Fold change /veh NR4A2 (11747474_a_at) / RFU ABCC12 (11746883_a_at) / Fold change /veh ABCC12 (11746883_a_at) / RFU TMEM136 (11760407_x_at) / Fold change /veh TMEM136 (11760407_x_at) / RFU CLDN22 /// WWC2 (11732394_at) / Fold change /veh CLDN22 /// WWC2 (11732394_at) / RFU HLA-DPB1 (11760878_x_at) / Fold change /veh HLA-DPB1 (11760878_x_at) / RFU SPINT1 (11716480_a_at) / Fold change /veh SPINT1 (11716480_a_at) / RFU GAP43 (11754022_s_at) / Fold change /veh GAP43 (11754022_s_at) / RFU A4GNT (11735810_at) / Fold change /veh A4GNT (11735810_at) / RFU PRB3 (11715151_x_at) / Fold change /veh PRB3 (11715151_x_at) / RFU TUBB4B (11761932_at) / Fold change /veh TUBB4B (11761932_at) / RFU CAPN14 (11732068_a_at) / Fold change /veh CAPN14 (11732068_a_at) / RFU TMCC2 (11721928_a_at) / Fold change /veh TMCC2 (11721928_a_at) / RFU IRGQ (11745062_a_at) / Fold change /veh IRGQ (11745062_a_at) / RFU FAM174B (11720279_a_at) / Fold change /veh FAM174B (11720279_a_at) / RFU TMPRSS4 (11748680_a_at) / Fold change /veh TMPRSS4 (11748680_a_at) / RFU FAM212B (11763350_a_at) / Fold change /veh FAM212B (11763350_a_at) / RFU PLEKHG5 (11743358_a_at) / Fold change /veh PLEKHG5 (11743358_a_at) / RFU ZSCAN30 (11745921_a_at) / Fold change /veh ZSCAN30 (11745921_a_at) / RFU CMKLR1 (11741424_a_at) / Fold change /veh CMKLR1 (11741424_a_at) / RFU LOC101060620 /// MAPK8IP1 (11723275_at) / Fold change /veh LOC101060620 /// MAPK8IP1 (11723275_at) / RFU SPTSSB (11747773_x_at) / Fold change /veh SPTSSB (11747773_x_at) / RFU PRSS12 (11739890_at) / Fold change /veh PRSS12 (11739890_at) / RFU BIN1 (11741810_x_at) / Fold change /veh BIN1 (11741810_x_at) / RFU WNT11 (11732464_a_at) / Fold change /veh WNT11 (11732464_a_at) / RFU C10orf10 (11716521_a_at) / Fold change /veh C10orf10 (11716521_a_at) / RFU C5orf56 (11738089_at) / Fold change /veh C5orf56 (11738089_at) / RFU CYB561 (11721691_x_at) / Fold change /veh CYB561 (11721691_x_at) / RFU ANKRD19P (11752326_a_at) / Fold change /veh ANKRD19P (11752326_a_at) / RFU OR2T12 /// OR2T33 /// OR2T8 (11738714_s_at) / Fold change /veh OR2T12 /// OR2T33 /// OR2T8 (11738714_s_at) / RFU VCAN (11748164_a_at) / Fold change /veh VCAN (11748164_a_at) / RFU JSRP1 (11732532_at) / Fold change /veh JSRP1 (11732532_at) / RFU KRTAP10-11 (11738290_x_at) / Fold change /veh KRTAP10-11 (11738290_x_at) / RFU MYO3A (11730013_a_at) / Fold change /veh MYO3A (11730013_a_at) / RFU EBF3 (11725865_a_at) / Fold change /veh EBF3 (11725865_a_at) / RFU CAMK2N1 (11719241_x_at) / Fold change /veh CAMK2N1 (11719241_x_at) / RFU C5orf56 (11738088_a_at) / Fold change /veh C5orf56 (11738088_a_at) / RFU OLFML3 (11715873_a_at) / Fold change /veh OLFML3 (11715873_a_at) / RFU LOC100653217 /// NTM (11731650_a_at) / Fold change /veh LOC100653217 /// NTM (11731650_a_at) / RFU MAPK11 (11762145_a_at) / Fold change /veh MAPK11 (11762145_a_at) / RFU FIZ1 (11724087_x_at) / Fold change /veh FIZ1 (11724087_x_at) / RFU OASL (11726364_x_at) / Fold change /veh OASL (11726364_x_at) / RFU SOX15 (11748057_x_at) / Fold change /veh SOX15 (11748057_x_at) / RFU CD79A (11719716_a_at) / Fold change /veh CD79A (11719716_a_at) / RFU HIST1H1D (11736915_at) / Fold change /veh HIST1H1D (11736915_at) / RFU CASKIN2 (11723855_a_at) / Fold change /veh CASKIN2 (11723855_a_at) / RFU LOC730098 (11760151_x_at) / Fold change /veh LOC730098 (11760151_x_at) / RFU OR4N2 (11742367_at) / Fold change /veh OR4N2 (11742367_at) / RFU PRRT2 (11749266_a_at) / Fold change /veh PRRT2 (11749266_a_at) / RFU SNX32 (11753110_a_at) / Fold change /veh SNX32 (11753110_a_at) / RFU CDHR5 (11726645_a_at) / Fold change /veh CDHR5 (11726645_a_at) / RFU RCAN1 (11760418_a_at) / Fold change /veh RCAN1 (11760418_a_at) / RFU FAM167A (11723789_a_at) / Fold change /veh FAM167A (11723789_a_at) / RFU FAM26E (11764081_at) / Fold change /veh FAM26E (11764081_at) / RFU ISYNA1 (11749810_s_at) / Fold change /veh ISYNA1 (11749810_s_at) / RFU ACY1 (11761880_at) / Fold change /veh ACY1 (11761880_at) / RFU 11764098_at / Fold change /veh 11764098_at / RFU SAMD14 (11745864_x_at) / Fold change /veh SAMD14 (11745864_x_at) / RFU NPB (11741838_a_at) / Fold change /veh NPB (11741838_a_at) / RFU TMPRSS6 (11731388_a_at) / Fold change /veh TMPRSS6 (11731388_a_at) / RFU KRTAP10-2 (11738614_at) / Fold change /veh KRTAP10-2 (11738614_at) / RFU ARHGAP8 /// PRR5-ARHGAP8 (11727945_x_at) / Fold change /veh ARHGAP8 /// PRR5-ARHGAP8 (11727945_x_at) / RFU KRTAP5-7 /// NADSYN1 (11734609_at) / Fold change /veh KRTAP5-7 /// NADSYN1 (11734609_at) / RFU RASL12 (11751679_a_at) / Fold change /veh RASL12 (11751679_a_at) / RFU CDKN2B (11736163_a_at) / Fold change /veh CDKN2B (11736163_a_at) / RFU PRF1 (11729649_at) / Fold change /veh PRF1 (11729649_at) / RFU, ZNF638 /// ZNF638-IT1 / Fold change vs veh, ZNF638 /// ZNF638-IT1 / RFU, PANK3 / Fold change vs veh, PANK3 / RFU, SH3YL1 / Fold change vs veh, SH3YL1 / RFU, ZEB2 / Fold change vs veh, ZEB2 / RFU, NRIP1 / Fold change vs veh, NRIP1 / RFU, PTTG1IP / Fold change vs veh, PTTG1IP / RFU, CAPN2 / Fold change vs veh, CAPN2 / RFU, MED14 / Fold change vs veh, MED14 / RFU, SNORA58 / Fold change vs veh, SNORA58 / RFU, C1orf63 / Fold change vs veh, C1orf63 / RFU, LRRFIP1 / Fold change vs veh, LRRFIP1 / RFU, NDUFAF7 / Fold change vs veh, NDUFAF7 / RFU, SLC12A2 / Fold change vs veh, SLC12A2 / RFU, IBTK / Fold change vs veh, IBTK / RFU, ESF1 / Fold change vs veh, ESF1 / Fold change vs veh, TMEM50B / RFU, TAOK1 / Fold change vs veh, TAOK1 / RFU, ACBD3 / Fold change vs veh, ACBD3 / RFU, TMA16 / Fold change vs veh, TMA16 / RFU, RWDD3 / Fold change vs veh, RWDD3 / RFU, BCAT1 / Fold change vs veh, BCAT1 / RFU, EDEM3 / Fold change vs veh, EDEM3 / RFU, TMEM33 / Fold change vs veh, TMEM33 / RFU, WDR75 / Fold change vs veh, WDR75 / RFU, AHCTF1 / Fold change vs veh, AHCTF1 / RFU, TFRC / Fold change vs veh, TFRC / RFU, ZDHHC17 / Fold change vs veh, ZDHHC17 / RFU, NOM1 / Fold change vs veh, NOM1 / RFU, ARL8B / Fold change vs veh, ARL8B / RFU, ZBTB11 / Fold change vs veh, ZBTB11 / RFU, TAMM41 / Fold change vs veh, TAMM41 / RFU, KIAA1704 /// LOC100996395 / Fold change vs veh, KIAA1704 /// LOC100996395 / RFU, ING1 / Fold change vs veh, ING1 / RFU, TRMT61B / Fold change vs veh, TRMT61B / RFU, FUBP3 / Fold change vs veh, FUBP3 / RFU, TP53 / Fold change vs veh, TP53 / RFU, TNKS2 / Fold change vs veh, TNKS2 / RFU, ZFP14 / Fold change vs veh, ZFP14 / RFU, ACTR2 / Fold change vs veh, ACTR2 / RFU, PPP3R1 / Fold change vs veh, PPP3R1 / RFU, PIK3R1 / Fold change vs veh, PIK3R1 / RFU, HNRNPA1 / Fold change vs veh, HNRNPA1 / RFU, RNF170 / Fold change vs veh, RNF170 / RFU, ZNF28 / Fold change vs veh, ZNF28 / RFU, RNGTT / Fold change vs veh, RNGTT / RFU, OGT / Fold change vs veh, OGT / RFU, BRD1 / Fold change vs veh, BRD1 / RFU, MARS / Fold change vs veh, MARS / RFU, ZNF655 / Fold change vs veh, ZNF655 / RFU, FAHD1 / Fold change vs veh, FAHD1 / RFU, BDP1 / Fold change vs veh, BDP1 / RFU, LRRCC1 / Fold change vs veh, LRRCC1 / RFU, ARID1A / Fold change vs veh, ARID1A / RFU, ZNF146 / Fold change vs veh, ZNF146 / RFU, ZNF330 / Fold change vs veh, ZNF330 / RFU, GPN3 / Fold change vs veh, GPN3 / RFU, C9orf123 / Fold change vs veh, C9orf123 / RFU, N4BP2L2 / Fold change vs veh, N4BP2L2 / RFU, ARFIP1 / Fold change vs veh, ARFIP1 / RFU, FAM179B / Fold change vs veh, FAM179B / RFU, BCL10 / Fold change vs veh, BCL10 / RFU, UHRF1BP1L / Fold change vs veh, UHRF1BP1L / RFU, BET1 / Fold change vs veh, BET1 / RFU, CNOT2 / Fold change vs veh, CNOT2 / RFU, ZNF268 / Fold change vs veh, ZNF268 / Fold change vs veh, ZNF507 / RFU, DGCR2 / Fold change vs veh, DGCR2 / RFU, WDSUB1 / Fold change vs veh, WDSUB1 / Fold change vs veh, HSP90B1 /// MIR3652 / RFU, ADSS / Fold change vs veh, ADSS / RFU, GK / Fold change vs veh, GK / RFU, ZNF148 / Fold change vs veh, ZNF148 / RFU, TAF9 / Fold change vs veh, TAF9 / RFU, SLC1A5 / Fold change vs veh, SLC1A5 / RFU, SLMO2 / Fold change vs veh, SLMO2 / RFU, ABCC4 / Fold change vs veh, ABCC4 / RFU, LOC101060439 /// RAP1B / Fold change vs veh, LOC101060439 /// RAP1B / RFU, RFX7 / Fold change vs veh, RFX7 / RFU, GTPBP10 / Fold change vs veh, GTPBP10 / RFU, CNEP1R1 / Fold change vs veh, CNEP1R1 / RFU, BIVM-ERCC5 /// ERCC5 / Fold change vs veh, BIVM-ERCC5 /// ERCC5 / RFU, ILF3 / Fold change vs veh, ILF3 / RFU 11762660_at / Fold change /veh 11762660_at / RFU VCAN (11757783_s_at) / Fold change /veh VCAN (11757783_s_at) / RFU DDX43 (11728927_at) / Fold change /veh DDX43 (11728927_at) / RFU KRT8 (11758188_x_at) / Fold change /veh KRT8 (11758188_x_at) / RFU NKD1 (11759106_at) / Fold change /veh NKD1 (11759106_at) / RFU SRD5A1 (11742802_a_at) / Fold change /veh SRD5A1 (11742802_a_at) / RFU TPSAB1 /// TPSB2 (11721975_s_at) / Fold change /veh TPSAB1 /// TPSB2 (11721975_s_at) / RFU GSTM3 (11746129_a_at) / Fold change /veh GSTM3 (11746129_a_at) / RFU IL23R (11737362_x_at) / Fold change /veh IL23R (11737362_x_at) / RFU TMEM51 (11727254_a_at) / Fold change /veh TMEM51 (11727254_a_at) / RFU PIWIL2 (11732686_x_at) / Fold change /veh PIWIL2 (11732686_x_at) / RFU ORM1 (11744905_x_at) / Fold change /veh ORM1 (11744905_x_at) / RFU CCDC152 (11743942_at) / Fold change /veh CCDC152 (11743942_at) / RFU ECM1 (11717891_a_at) / Fold change /veh ECM1 (11717891_a_at) / RFU IL23R (11748794_a_at) / Fold change /veh IL23R (11748794_a_at) / RFU TNFAIP8L3 (11732012_x_at) / Fold change /veh TNFAIP8L3 (11732012_x_at) / RFU MBOAT4 (11741988_at) / Fold change /veh MBOAT4 (11741988_at) / RFU 11764193_at / Fold change /veh 11764193_at / RFU TMEM53 (11763286_at) / Fold change /veh TMEM53 (11763286_at) / RFU MAGEB2 (11727129_at) / Fold change /veh MAGEB2 (11727129_at) / RFU TMEM200A (11744735_a_at) / Fold change /veh TMEM200A (11744735_a_at) / RFU CCDC152 (11751479_a_at) / Fold change /veh CCDC152 (11751479_a_at) / RFU FAM211A (11726209_a_at) / Fold change /veh FAM211A (11726209_a_at) / RFU RGS16 (11746705_a_at) / Fold change /veh RGS16 (11746705_a_at) / RFU VCAN (11755009_s_at) / Fold change /veh VCAN (11755009_s_at) / RFU RHOB (11743442_s_at) / Fold change /veh RHOB (11743442_s_at) / RFU RGS16 (11720943_a_at) / Fold change /veh RGS16 (11720943_a_at) / RFU RGS16 (11720944_at) / Fold change /veh RGS16 (11720944_at) / RFU, VPS4B / Fold change vs veh, VPS4B / RFU, CREB1 / Fold change vs veh, CREB1 / RFU, DNAJC13 / Fold change vs veh, DNAJC13 / RFU, GNAQ / Fold change vs veh, GNAQ / RFU, CDK5R1 / Fold change vs veh, CDK5R1 / RFU, ZRANB3 / Fold change vs veh, ZRANB3 / RFU, CUL4A / Fold change vs veh, CUL4A / RFU, CCNY / Fold change vs veh, CCNY / RFU, UFL1 / Fold change vs veh, UFL1 / RFU, COG3 / Fold change vs veh, COG3 / RFU, DIAPH2 / Fold change vs veh, DIAPH2 / RFU, SKA2 / Fold change vs veh, SKA2 / RFU, AFF3 / Fold change vs veh, AFF3 / RFU, LMF1 / Fold change vs veh, LMF1 / RFU, IPO11 / Fold change vs veh, IPO11 / RFU, DFFB / Fold change vs veh, DFFB / RFU, FOXP1 / Fold change vs veh, FOXP1 / RFU, CARD8 / Fold change vs veh, CARD8 / RFU, STRN3 / Fold change vs veh, STRN3 / RFU, ADK / Fold change vs veh, ADK / RFU, RASSF2 / Fold change vs veh, RASSF2 / RFU, WIPF1 / Fold change vs veh, WIPF1 / RFU, LARP1B / Fold change vs veh, LARP1B / RFU, RASA1 / Fold change vs veh, RASA1 / RFU, RB1 / Fold change vs veh, RB1 / RFU, PPFIA1 / Fold change vs veh, PPFIA1 / RFU, MAT2A / Fold change vs veh, MAT2A / RFU, CCT5 / Fold change vs veh, CCT5 / RFU, WDR92 / Fold change vs veh, WDR92 / RFU, CUX1 / Fold change vs veh, CUX1 / RFU, TTC7A / Fold change vs veh, TTC7A / RFU, TMEM135 / Fold change vs veh, TMEM135 / RFU, DEPTOR / Fold change vs veh, DEPTOR / RFU, CPM / Fold change vs veh, CPM / RFU, DNAJB6 / Fold change vs veh, DNAJB6 / RFU, CACNA2D3 / Fold change vs veh, CACNA2D3 / RFU, DTX4 / Fold change vs veh, DTX4 / RFU, TFCP2 / Fold change vs veh, TFCP2 / RFU, GMCL1 /// GMCL1P1 / Fold change vs veh, GMCL1 /// GMCL1P1 / RFU, AEBP2 / Fold change vs veh, AEBP2 / RFU, SNHG1 /// SNORD22 /// SNORD25 /// SNORD26 /// SNORD27 /// SNORD28 /// SNORD29 /// SNORD31 / Fold change vs veh, SNHG1 /// SNORD22 /// SNORD25 /// SNORD26 /// SNORD27 /// SNORD28 /// SNORD29 /// SNORD31 / Fold change (Aza/veh), C12orf56 (ProbeSet 11735607_a_at) / Fold change (ACY-1035/veh), C12orf56 (ProbeSet 11735607_a_at) / Fold change (Aza/veh), FGFR1OP (ProbeSet 11751329_s_at) / Fold change (ACY-1035/veh), FGFR1OP (ProbeSet 11751329_s_at) / Fold change (Aza/veh), VPS36 (ProbeSet 11739960_a_at) / Fold change (ACY-1035/veh), VPS36 (ProbeSet 11739960_a_at) / RFU SYPL1 (11715823_x_at) / Fold change /veh SYPL1 (11715823_x_at) / RFU IGFBP7 (11715501_s_at) / Fold change /veh IGFBP7 (11715501_s_at) / RFU REEP3 (11722064_at) / Fold change /veh REEP3 (11722064_at) / RFU IGLL1 (11728026_x_at) / Fold change /veh IGLL1 (11728026_x_at): dose or concentration left out as unconfirmed", "conditions": "ProbeSet 11716931_at; LIST B"}
{"smiles": "Nc1ccc(-c2cccs2)cc1NC(=O)c1ccc2c(c1)cc(C1CC1)n2CCN1CCOCC1", "note": "[ACY-1035]", "values": [{"measurement": "RFU, DGCR2", "result": 215.86, "unit": "RFU"}]}
